# Experimental data from US6503449B1, “Process for the control of microbial contamination in water-based solids suspensions” (Ciba Specialty Chemicals Corporation, priority 1998, dated 2003).
# Test system: Xanthomonas maltophilia and Pseudomonas mendocina
# Assay: Sonication of Pigment Red 53.1 dispersion with biocide, bacterial contamination check
# Type: cell-based
# Text: A mixture of Pigment Red 23, available from Ciba Specialty Chemicals(UK) Ltd., 215.5 parts, Emulan OG (RTM) (35% solution in water), available from BASF, 153.7 parts, tributyl phosphate, available from Albright & Wilson, 2 parts, and water, 128.8 parts, are dispersed by re-circulation through a Bachofen KDL200 bead-mill until colouristic properties are within specification of UNISPERSE (RTM) Red RBS-PI, available from Ciba Specialty Chemicals(UK) Ltd., and adjusted to pH 8.0-8.5 with 20% sodium hydroxide solution. This material is identified as containing the Gram negative bacterium, Pseudomonas putida. 50 millilitre aliquots of this dispersion containing levels of glutaraldehyde (pentane-1,5-dialdehyde), available as the trade product Protectol GDA form BASF or Ucarcide from Union Carbide, between 0 parts per million (ppm) and 2000 ppm are sonicated using a Branson MSE sonicator with a 19 mm horn probe resonating at 20 kHz with an amplitude of 6 microns. Sonication is undertaken in a 100 millilitre glass beaker, diameter 38 mm, with magnetic flea agitator and cooled in a water/ice bath to maintain temperature at 28-32° C. Bacterial growth in each sample is assessed at 5 minute intervals by streaking each dispersion on to Nutrient Agar(NA) plates and incubating the plates for a minimum of 48 hours at 30° C. The plates are then examined for bacterial colonies and expressed according to the following notation:
# A mixture of Pigment Red 53.1, available from S&D Chemicals Ltd., 37 parts, Emulan OG (35% solution), 25.9 parts, 2-ethylhexanoic acid, available from Barratt Chemicals Ltd., 3 parts tributyl phosphate, 0.3 parts, and water 31.74 parts are dispersed by a single pass through a Bachofen KDL Special beadmill containing 1.0 mm Yttrium-stabilised Zirconium Oxide beads. This material is identified as containing the Gram negative bacteria, Xanthomonas maltophilia and Pseudomonas mendocina. 50 millilitre aliquots of this dispersion are treated with pentane-1,5-dialdehyde (Ucarcide 250) and CIT/MIT mixture (Acticide LG) according to the process defined in Example 1 and each sample checked for bacterial contamination according to the following table: […]
smiles,measurement,setting,value
"O=CCCCC=O [glutaraldehyde, pentane-1,5-dialdehyde]",bacterial contamination,"500 ppm Ucarcide 250, 3 days after sonication",+++ (heavy contamination(>10^5 cfu/ml))
same,bacterial contamination,"500 ppm Ucarcide 250, 7 days after sonication",+++ (heavy contamination(>10^5 cfu/ml))
same,bacterial contamination,"500 ppm Ucarcide 250, 14 days after sonication",+++ (heavy contamination(>10^5 cfu/ml))
same,bacterial contamination,"500 ppm Ucarcide 250, 28 days after sonication",+++ (heavy contamination(>10^5 cfu/ml))
same,bacterial contamination,"500 ppm Ucarcide 250, 90 days after sonication",+++ (heavy contamination(>10^5 cfu/ml))
same,bacterial contamination,"500 ppm Ucarcide 250, sonicated 0 mins.",+++ (heavy contamination(>10^5 cfu/ml))
same,bacterial contamination,"500 ppm Ucarcide 250, sonicated 5 mins.",+++ (heavy contamination(>10^5 cfu/ml))
same,bacterial contamination,"500 ppm Ucarcide 250, sonicated 10 mins.",+++ (heavy contamination(>10^5 cfu/ml))
same,bacterial contamination,"500 ppm Ucarcide 250, sonicated 15 mins.",+++ (heavy contamination(>10^5 cfu/ml))
same,bacterial contamination,"500 ppm Ucarcide 250, sonicated 20 mins.",+++ (heavy contamination(>10^5 cfu/ml))
same,bacterial contamination,"500 ppm Ucarcide 250, sonicated 25 mins.",+++ (heavy contamination(>10^5 cfu/ml))
same,bacterial contamination,"500 ppm Ucarcide 250, sonicated 30 mins.",++ (moderate contamination(10^3-10^5 cfu/ml))
same,bacterial contamination,"500 ppm Ucarcide 250, sonicated 35 mins.",++ (moderate contamination(10^3-10^5 cfu/ml))
same,bacterial contamination,"500 ppm Ucarcide 250, sonicated 40 mins.",++ (moderate contamination(10^3-10^5 cfu/ml))
same,bacterial contamination,"500 ppm Ucarcide 250, sonicated 45 mins.",++ (moderate contamination(10^3-10^5 cfu/ml))
same,bacterial contamination,"500 ppm Ucarcide 250, sonicated 50 mins.",++ (moderate contamination(10^3-10^5 cfu/ml))
same,bacterial contamination,"500 ppm Ucarcide 250, sonicated 55 mins.",+ (light contamination (10^0 and 10^3 cfu/ml))
same,bacterial contamination,"500 ppm Ucarcide 250, sonicated 60 mins.",+ (light contamination (10^0 and 10^3 cfu/ml))
same,bacterial contamination,"750 ppm Ucarcide 250, 3 days after sonication",+++ (heavy contamination(>10^5 cfu/ml))
same,bacterial contamination,"750 ppm Ucarcide 250, 7 days after sonication",+++ (heavy contamination(>10^5 cfu/ml))
same,bacterial contamination,"750 ppm Ucarcide 250, 14 days after sonication",+++ (heavy contamination(>10^5 cfu/ml))
same,bacterial contamination,"750 ppm Ucarcide 250, 28 days after sonication",+++ (heavy contamination(>10^5 cfu/ml))
same,bacterial contamination,"750 ppm Ucarcide 250, 90 days after sonication",+++ (heavy contamination(>10^5 cfu/ml))
same,bacterial contamination,"750 ppm Ucarcide 250, sonicated 0 mins.",+++ (heavy contamination(>10^5 cfu/ml))
same,bacterial contamination,"750 ppm Ucarcide 250, sonicated 5 mins.",+++ (heavy contamination(>10^5 cfu/ml))
same,bacterial contamination,"750 ppm Ucarcide 250, sonicated 10 mins.",+++ (heavy contamination(>10^5 cfu/ml))
same,bacterial contamination,"750 ppm Ucarcide 250, sonicated 15 mins.",+++ (heavy contamination(>10^5 cfu/ml))
same,bacterial contamination,"750 ppm Ucarcide 250, sonicated 20 mins.",+++ (heavy contamination(>10^5 cfu/ml))
same,bacterial contamination,"750 ppm Ucarcide 250, sonicated 25 mins.",+++ (heavy contamination(>10^5 cfu/ml))
same,bacterial contamination,"750 ppm Ucarcide 250, sonicated 30 mins.",++ (moderate contamination(10^3-10^5 cfu/ml))
same,bacterial contamination,"750 ppm Ucarcide 250, sonicated 35 mins.",++ (moderate contamination(10^3-10^5 cfu/ml))
same,bacterial contamination,"750 ppm Ucarcide 250, sonicated 40 mins.",++ (moderate contamination(10^3-10^5 cfu/ml))
same,bacterial contamination,"750 ppm Ucarcide 250, sonicated 45 mins.",++ (moderate contamination(10^3-10^5 cfu/ml))
same,bacterial contamination,"750 ppm Ucarcide 250, sonicated 50 mins.",+ (light contamination (10^0 and 10^3 cfu/ml))
same,bacterial contamination,"750 ppm Ucarcide 250, sonicated 55 mins.",+ (light contamination (10^0 and 10^3 cfu/ml))
same,bacterial contamination,"750 ppm Ucarcide 250, sonicated 60 mins.",+ (light contamination (10^0 and 10^3 cfu/ml))
same,bacterial contamination,"1000 ppm Ucarcide 250, 3 days after sonication",+++ (heavy contamination(>10^5 cfu/ml))
same,bacterial contamination,"1000 ppm Ucarcide 250, 7 days after sonication",+++ (heavy contamination(>10^5 cfu/ml))
same,bacterial contamination,"1000 ppm Ucarcide 250, 14 days after sonication",+++ (heavy contamination(>10^5 cfu/ml))
same,bacterial contamination,"1000 ppm Ucarcide 250, 28 days after sonication",+++ (heavy contamination(>10^5 cfu/ml))
same,bacterial contamination,"1000 ppm Ucarcide 250, 90 days after sonication",+++ (heavy contamination(>10^5 cfu/ml))
same,bacterial contamination,"1000 ppm Ucarcide 250, sonicated 0 mins.",+++ (heavy contamination(>10^5 cfu/ml))
same,bacterial contamination,"1000 ppm Ucarcide 250, sonicated 5 mins.",+++ (heavy contamination(>10^5 cfu/ml))
same,bacterial contamination,"1000 ppm Ucarcide 250, sonicated 10 mins.",+++ (heavy contamination(>10^5 cfu/ml))
same,bacterial contamination,"1000 ppm Ucarcide 250, sonicated 15 mins.",+++ (heavy contamination(>10^5 cfu/ml))
same,bacterial contamination,"1000 ppm Ucarcide 250, sonicated 20 mins.",++ (moderate contamination(10^3-10^5 cfu/ml))
same,bacterial contamination,"1000 ppm Ucarcide 250, sonicated 25 mins.",++ (moderate contamination(10^3-10^5 cfu/ml))
same,bacterial contamination,"1000 ppm Ucarcide 250, sonicated 30 mins.",+ (light contamination (10^0 and 10^3 cfu/ml))
same,bacterial contamination,"1000 ppm Ucarcide 250, sonicated 35 mins.",+ (light contamination (10^0 and 10^3 cfu/ml))
same,bacterial contamination,"1000 ppm Ucarcide 250, sonicated 40 mins.",+ (light contamination (10^0 and 10^3 cfu/ml))
same,bacterial contamination,"1000 ppm Ucarcide 250, sonicated 45 mins.",+ (light contamination (10^0 and 10^3 cfu/ml))
same,bacterial contamination,"1000 ppm Ucarcide 250, sonicated 50 mins.",+ (light contamination (10^0 and 10^3 cfu/ml))
same,bacterial contamination,"1000 ppm Ucarcide 250, sonicated 55 mins.",+ (light contamination (10^0 and 10^3 cfu/ml))
same,bacterial contamination,"1000 ppm Ucarcide 250, sonicated 60 mins.",+ (light contamination (10^0 and 10^3 cfu/ml))
same,bacterial contamination,"1500 ppm Ucarcide 250, 3 days after sonication",+++ (heavy contamination(>10^5 cfu/ml))
same,bacterial contamination,"1500 ppm Ucarcide 250, 7 days after sonication",+++ (heavy contamination(>10^5 cfu/ml))
same,bacterial contamination,"1500 ppm Ucarcide 250, 14 days after sonication",+++ (heavy contamination(>10^5 cfu/ml))
same,bacterial contamination,"1500 ppm Ucarcide 250, 28 days after sonication",+++ (heavy contamination(>10^5 cfu/ml))
same,bacterial contamination,"1500 ppm Ucarcide 250, 90 days after sonication",+++ (heavy contamination(>10^5 cfu/ml))
same,bacterial contamination,"1500 ppm Ucarcide 250, sonicated 0 mins.",+++ (heavy contamination(>10^5 cfu/ml))
same,bacterial contamination,"1500 ppm Ucarcide 250, sonicated 5 mins.",+++ (heavy contamination(>10^5 cfu/ml))
same,bacterial contamination,"1500 ppm Ucarcide 250, sonicated 10 mins.",+++ (heavy contamination(>10^5 cfu/ml))
same,bacterial contamination,"1500 ppm Ucarcide 250, sonicated 15 mins.",+++ (heavy contamination(>10^5 cfu/ml))
same,bacterial contamination,"1500 ppm Ucarcide 250, sonicated 20 mins.",++ (moderate contamination(10^3-10^5 cfu/ml))
same,bacterial contamination,"1500 ppm Ucarcide 250, sonicated 25 mins.",+ (light contamination (10^0 and 10^3 cfu/ml))
same,bacterial contamination,"1500 ppm Ucarcide 250, sonicated 30 mins.",+ (light contamination (10^0 and 10^3 cfu/ml))
same,bacterial contamination,"1500 ppm Ucarcide 250, sonicated 35 mins.",+ (light contamination (10^0 and 10^3 cfu/ml))
same,bacterial contamination,"1500 ppm Ucarcide 250, sonicated 40 mins.",+ (light contamination (10^0 and 10^3 cfu/ml))
same,bacterial contamination,"1500 ppm Ucarcide 250, sonicated 45 mins.",+ (light contamination (10^0 and 10^3 cfu/ml))
same,bacterial contamination,"1500 ppm Ucarcide 250, sonicated 50 mins.",+ (light contamination (10^0 and 10^3 cfu/ml))
same,bacterial contamination,"1500 ppm Ucarcide 250, sonicated 55 mins.",+ (light contamination (10^0 and 10^3 cfu/ml))
same,bacterial contamination,"1500 ppm Ucarcide 250, sonicated 60 mins.",+ (light contamination (10^0 and 10^3 cfu/ml))
